Assay results: patent US20100298141A1, “SUBSTITUTED PYRIDINE N-OXIDE HERBICIDES” (E. I. DU PONT DE NEMOURS AND COMPANY, priority 2007, published 2010)

Legend:
mustard = assay: Test F preemergence test; type: in vivo, Brassica nigra; conditions: scale 0 to 100
Method in brief: (§1)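 Visual ratings relative to controls, taken after 14 to 21 days in a greenhouse. Test chemicals, formulated in a surfactant-containing non-phytotoxic solvent mixture, were applied preemergence to sown seeds or postemergence to sugarcane plants.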

green foxtail = assay: Test F preemergence test; type: in vivo, Setaria viridis; conditions: scale 0 to 100
Method in brief: as §1

field bindweed = assay: Test F preemergence test; type: in vivo, Convolvulus arvensis; conditions: scale 0 to 100
Method in brief: as §1

windgrass = assay: Test C pre-/postemergence test; type: in vivo, Apera spica-venti; conditions: Postemergence; for Plant response rating, Windgrass: scale 0 to 100, 0 no effect, 100 complete control
From the text: Seeds of plant species selected from blackgrass (Alopecurus myosuroides), downy brome (Bromus tectorum), green foxtail (Setaria viridis), Italian ryegrass (Lolium multiflorum), wheat (Triticum aestivum), wild oat (Avena fatua), catchweed bedstraw (Galium aparine), Russian thistle (Salsola kali), […] (Cynodon dactylon), Surinam grass (Brachiaria decumbens), cocklebur (Xanthium strumarium), corn (Zea mays), crabgrass (Digitaria sanguinalis), woolly cupgrass (Eriochloa villosa), giant foxtail (Setaria faberii), Goosegrass (Eleusin indica), johnsongrass (Sorghum halepense), kochia (Kochia scoparia), lambsquarters (Chenopodium album), morningglory (Ipomoea coccinea), eastern black nightshade (Solanum ptycanthum), yellow nutsedge (Cyperus esculentus), pigweed (Amaranthus retroflexus), common ragweed (Ambrosia elation), soybean (Glycine max), common (oilseed) sunflower (Helianthus annuus), and velvetleaf (Abutilon theophrasti) were planted and treated preemergence with test chemicals formulated in a non-phytotoxic solvent mixture which included a surfactant. At the same time, plants selected from these crop and weed species and also winter barley (Hordeum vulgare), canarygrass (Phalaris minor), and chickweed (Stellaria media) were treated with postemergence applications of some of the test chemicals formulated in the same manner. Plants ranged in height from 2 to 18 cm (1- to 4-leaf stage) for postemergence treatments. […] At time of treatment, test pots were flooded to 3 cm above the soil surface, treated by application of test compounds directly to the paddy water, and then maintained at that water depth for the duration of the test. […] A dash (-) response means no test result.

barnyardgrass = assay: Test F preemergence test; type: in vivo, Echinochloa crus-galli
Method in brief: as §1

common purslane = assay: Test F preemergence test; type: in vivo, Portulaca oleracea; conditions: scale 0 to 100
Method in brief: as §1

quackgrass = assay: Test F preemergence test; type: in vivo, Elytrigia repens; conditions: scale 0 to 100
Method in brief: as §1

guineagrass = assay: Test F preemergence test; type: in vivo, Panicum maximum; conditions: scale 0 to 100
Method in brief: as §1

common groundsel = assay: Test F preemergence test; type: in vivo, Senecio vulgaris; conditions: scale 0 to 100
Method in brief: as §1

prickly sida = assay: Test F preemergence test; type: in vivo, Sida spinosa; conditions: scale 0 to 100
Method in brief: as §1

itchgrass = assay: Test F preemergence test; type: in vivo, Rottboellia cochinchinensis; conditions: scale 0 to 100
Method in brief: as §1

dallisgrass = assay: Test F preemergence test; type: in vivo, Paspalum dilatatum; conditions: scale 0 to 100
Method in brief: as §1

southern sandbur = assay: Test F preemergence test; type: in vivo, Cenchrus echinatus; conditions: scale 0 to 100; for Sandbur plant response rating: 125 g ai/ha, preemergence; for Plant response rating, Sandbur: Preemergence
Method in brief: as §1

[1] = 16 g ai/ha, preemergence, scale 0 to 100 (0 no effect, 100 complete control)
[2] = 125 g ai/ha, preemergence, scale 0 to 100
[3] = Preemergence, 31 g ai/ha, scale 0 to 100

Cn1nc(C(F)(F)C(F)(F)F)c(C[S+]([O-])c2cccc[n+]2[O-])c1OCC(F)(F)F (stereo not shown) [Compound 79]
Plant response rating, Black Mustard (mustard; 16 g ai/ha, preemergence): 100
Black Mustard plant response rating (mustard; 62 g ai/ha, Preemergence): 100
Black Mustard plant response rating (mustard; 125 g ai/ha, preemergence): 100
Plant response rating, Black Mustard (mustard; Preemergence, 31 g ai/ha): 100
Plant response rating, Foxtail, Green (green foxtail; 16 g ai/ha, preemergence): 20
Foxtail, Green plant response rating (green foxtail; 62 g ai/ha, Preemergence): 90
Foxtail, Green plant response rating (green foxtail; 125 g ai/ha, preemergence): 100
Plant response rating, Foxtail, Green (green foxtail; Preemergence, 31 g ai/ha): 60
Plant response rating, Field Bindweed (field bindweed; 16 g ai/ha, preemergence): 60
Field Bindweed plant response rating (field bindweed; 62 g ai/ha, Preemergence): 80
Field Bindweed plant response rating (field bindweed; 125 g ai/ha, preemergence): 95
Plant response rating, Field Bindweed (field bindweed; Preemergence, 31 g ai/ha): 70
Plant response rating (0 to 100), Windgrass (windgrass; 31 g ai/ha): 60
Plant response rating (0 to 100), Windgrass (windgrass; 62 g ai/ha): 100
Plant response rating, Windgrass (windgrass; 125 g ai/ha): 100
Plant response rating, Windgrass (windgrass; 250 g ai/ha): 100
Plant response rating, Barnyardgrass (barnyardgrass; [1]): 20
Barnyardgrass plant response rating (barnyardgrass; 62 g ai/ha, Preemergence, scale 0 to 100): 100
Barnyardgrass plant response rating (barnyardgrass; [2]): 100
Plant response rating, Barnyardgrass (barnyardgrass; [3]): 80
Plant response rating, Purslane (common purslane; 16 g ai/ha, preemergence): 30
Purslane plant response rating (common purslane; 62 g ai/ha, Preemergence): 60
Purslane plant response rating (common purslane; 125 g ai/ha, preemergence): 100
Plant response rating, Purslane (common purslane; Preemergence, 31 g ai/ha): 40
Plant response rating, Quackgrass (quackgrass; 16 g ai/ha, preemergence): 0
Quackgrass plant response rating (quackgrass; 62 g ai/ha, Preemergence): 80
Quackgrass plant response rating (quackgrass; 125 g ai/ha, preemergence): 95
Plant response rating, Quackgrass (quackgrass; Preemergence, 31 g ai/ha): 35
Plant response rating, Guineagrass (guineagrass; 16 g ai/ha, preemergence): 0
Guineagrass plant response rating (guineagrass; 62 g ai/ha, Preemergence): 100
Guineagrass plant response rating (guineagrass; 125 g ai/ha, preemergence): 100
Plant response rating, Guineagrass (guineagrass; Preemergence, 31 g ai/ha): 95
Plant response rating, Groundsel (common groundsel; 16 g ai/ha, preemergence): 95
Groundsel plant response rating (common groundsel; 62 g ai/ha, Preemergence): 95
Groundsel plant response rating (common groundsel; 125 g ai/ha, preemergence): 100
Plant response rating, Groundsel (common groundsel; Preemergence, 31 g ai/ha): 95
Plant response rating, Prickly Sida (prickly sida; 16 g ai/ha, preemergence): 0
Prickly Sida plant response rating (prickly sida; 62 g ai/ha, Preemergence): 100
Prickly Sida plant response rating (prickly sida; 125 g ai/ha, preemergence): 100
Plant response rating, Prickly Sida (prickly sida; Preemergence, 31 g ai/ha): 20
Plant response rating, Itchgrass (itchgrass; 16 g ai/ha, preemergence): 0
Itchgrass plant response rating (itchgrass; 62 g ai/ha, Preemergence): 75
Itchgrass plant response rating (itchgrass; 125 g ai/ha, preemergence): 95
Plant response rating, Itchgrass (itchgrass; Preemergence, 31 g ai/ha): 75
Plant response rating, Dallisgrass (dallisgrass; 16 g ai/ha, preemergence): 0
Dallisgrass plant response rating (dallisgrass; 62 g ai/ha, Preemergence): 90
Dallisgrass plant response rating (dallisgrass; 125 g ai/ha, preemergence): 100
Plant response rating, Dallisgrass (dallisgrass; Preemergence, 31 g ai/ha): 40
Sandbur plant response rating (southern sandbur): 95
Plant response rating, Sandbur (southern sandbur; 62 g ai/ha): 95
Plant response rating, Sandbur (southern sandbur; 31 g ai/ha): 35

CC(Oc1c(CS(=O)(=O)c2cccc[n+]2[O-])c(C(F)(F)F)nn1C)C(F)(F)F (stereo not shown) [Compound 82]
Plant response rating, Black Mustard (mustard; 16 g ai/ha, preemergence): 0
Black Mustard plant response rating (mustard; 125 g ai/ha, preemergence): 100
Plant response rating, Black Mustard (mustard; Preemergence, 62 g ai/ha): 50
Plant response rating, Black Mustard (mustard; Preemergence, 31 g ai/ha): 0
Plant response rating, Foxtail, Green (green foxtail; 16 g ai/ha, preemergence): 30
Foxtail, Green plant response rating (green foxtail; 125 g ai/ha, preemergence): 95
Plant response rating, Foxtail, Green (green foxtail; Preemergence, 62 g ai/ha): 95
Plant response rating, Foxtail, Green (green foxtail; Preemergence, 31 g ai/ha): 95
Plant response rating, Field Bindweed (field bindweed; 16 g ai/ha, preemergence): 0
Field Bindweed plant response rating (field bindweed; 125 g ai/ha, preemergence): 0
Plant response rating, Field Bindweed (field bindweed; Preemergence, 62 g ai/ha): 0
Plant response rating, Field Bindweed (field bindweed; Preemergence, 31 g ai/ha): 0
Plant response rating (0 to 100), Windgrass (windgrass; 31 g ai/ha): 70
Plant response rating (0 to 100), Windgrass (windgrass; 62 g ai/ha): 90
Plant response rating, Windgrass (windgrass; 125 g ai/ha): 100
Plant response rating, Windgrass (windgrass; 250 g ai/ha): 100
Plant response rating, Barnyardgrass (barnyardgrass; [1]): 50
Barnyardgrass plant response rating (barnyardgrass; [2]): 100
Plant response rating, Barnyardgrass (barnyardgrass; Preemergence, 62 g ai/ha, scale 0 to 100): 80
Plant response rating, Barnyardgrass (barnyardgrass; [3]): 70
Plant response rating, Purslane (common purslane; 16 g ai/ha, preemergence): 0
Purslane plant response rating (common purslane; 125 g ai/ha, preemergence): 35
Plant response rating, Purslane (common purslane; Preemergence, 62 g ai/ha): 30
Plant response rating, Quackgrass (quackgrass; 16 g ai/ha, preemergence): 70
Quackgrass plant response rating (quackgrass; 125 g ai/ha, preemergence): 100
Plant response rating, Quackgrass (quackgrass; Preemergence, 62 g ai/ha): 95
Plant response rating, Quackgrass (quackgrass; Preemergence, 31 g ai/ha): 70
Plant response rating, Guineagrass (guineagrass; 16 g ai/ha, preemergence): 70
Guineagrass plant response rating (guineagrass; 125 g ai/ha, preemergence): 100
Plant response rating, Guineagrass (guineagrass; Preemergence, 62 g ai/ha): 95
Plant response rating, Guineagrass (guineagrass; Preemergence, 31 g ai/ha): 70
Plant response rating, Groundsel (common groundsel; 16 g ai/ha, preemergence): 0
Groundsel plant response rating (common groundsel; 125 g ai/ha, preemergence): 90
Plant response rating, Groundsel (common groundsel; Preemergence, 62 g ai/ha): 30
Plant response rating, Groundsel (common groundsel; Preemergence, 31 g ai/ha): 0
Plant response rating, Prickly Sida (prickly sida; 16 g ai/ha, preemergence): 0
Prickly Sida plant response rating (prickly sida; 125 g ai/ha, preemergence): 75
Plant response rating, Prickly Sida (prickly sida; Preemergence, 62 g ai/ha): 15
Plant response rating, Prickly Sida (prickly sida; Preemergence, 31 g ai/ha): 0
Itchgrass plant response rating (itchgrass; 125 g ai/ha, preemergence): 70
Plant response rating, Itchgrass (itchgrass; Preemergence, 62 g ai/ha): 60
Plant response rating, Itchgrass (itchgrass; Preemergence, 31 g ai/ha): 0
Plant response rating, Dallisgrass (dallisgrass; 16 g ai/ha, preemergence): 20
Dallisgrass plant response rating (dallisgrass; 125 g ai/ha, preemergence): 90
Plant response rating, Dallisgrass (dallisgrass; Preemergence, 62 g ai/ha): 40
Plant response rating, Dallisgrass (dallisgrass; Preemergence, 31 g ai/ha): 20
Sandbur plant response rating (southern sandbur): 95
Plant response rating, Sandbur (southern sandbur; 62 g ai/ha): 60
Plant response rating, Sandbur (southern sandbur; 31 g ai/ha): 60
